The results in this text go back to patent US6242611A, “Phenylimidazolidines containing nitrooxy or carbonyloxy groups” (Hoechst Marion Roussel, priority 1995, dated 2001).

In one assay the target is T1, Androgen Receptor (Rattus norvegicus, UniProt P15207).
T1 construct: the prostates are removed, weighed and homogenized at 0° C; from tissue; host or cells: prostate cytosol of castrated male Sprague Dawley rats
T1 sequence (P15207 1-902): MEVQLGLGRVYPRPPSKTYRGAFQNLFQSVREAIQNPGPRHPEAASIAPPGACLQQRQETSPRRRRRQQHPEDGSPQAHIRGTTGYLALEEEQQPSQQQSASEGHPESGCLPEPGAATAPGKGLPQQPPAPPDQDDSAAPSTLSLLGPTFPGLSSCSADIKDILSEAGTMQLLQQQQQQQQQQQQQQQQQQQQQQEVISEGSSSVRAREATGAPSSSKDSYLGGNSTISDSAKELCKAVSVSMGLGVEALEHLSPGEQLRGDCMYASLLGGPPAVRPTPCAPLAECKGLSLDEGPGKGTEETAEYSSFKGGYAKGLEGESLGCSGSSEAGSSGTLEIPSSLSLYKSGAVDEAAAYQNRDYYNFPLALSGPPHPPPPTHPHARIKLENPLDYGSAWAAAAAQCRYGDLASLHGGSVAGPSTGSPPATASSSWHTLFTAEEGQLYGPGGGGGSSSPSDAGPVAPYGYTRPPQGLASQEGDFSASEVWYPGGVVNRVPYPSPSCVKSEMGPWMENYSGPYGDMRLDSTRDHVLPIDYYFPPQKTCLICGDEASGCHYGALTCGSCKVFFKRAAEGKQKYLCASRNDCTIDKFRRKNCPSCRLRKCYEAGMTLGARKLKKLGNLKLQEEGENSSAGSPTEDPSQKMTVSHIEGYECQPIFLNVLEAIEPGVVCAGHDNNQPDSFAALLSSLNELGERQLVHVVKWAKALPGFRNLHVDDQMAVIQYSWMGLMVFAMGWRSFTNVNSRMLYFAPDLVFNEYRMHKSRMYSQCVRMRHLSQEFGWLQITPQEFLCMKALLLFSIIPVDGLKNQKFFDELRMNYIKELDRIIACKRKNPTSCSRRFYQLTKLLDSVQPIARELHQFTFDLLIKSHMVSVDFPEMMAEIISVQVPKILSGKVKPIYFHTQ
Kind of assay: Affinity for the androgen receptor (relative bond affinity, tritiated testosterone displacement, rat prostate cytosol). The assay is classed as binding, Male Sprague Dawley EOPS rats. As for the experimental part:
The homogenate is then ultracentrifuged at 0° C., for 30 minutes at 209,000 g.

Assay [1] deals with Costo-vertebral Gland of the Hamster. Kind of assay: Reducing effect on the costo-vertebral gland of the hamster (local topical antiandrogen activity). To be noted: 3 weeks (14 administrations), surface area of C.V.G., male hamsters, compared to animals treated with solvent only. The assay is classed as in vivo, male hamsters (Charles River breed). As for the experimental part:
The local activity (topical) of an antiandrogen is determined by the reduction which it produces in the surface area of the costovertebral gland of the hamster (hereafter C.V.G.), an androgen-dependent organ situated on the sides of the animal.
The animals are male hamsters weighing approximately 140 g, 14 weeks old and originating from the Charles Riverbreed (USA), they are subjected to a long photoperiod (16 hours of light, 8 hours of darkness). The animals are treated every day, except for the weekend, for 3 weeks (14 administrations). The product to be tested is applied, by topical route, to the right-hand G.C.V., the left-hand one serving as the control, the surface of the gland having been shaved beforehand. The animals are sacrificed by bleeding the carotid artery 24 hours after the last treatment. The C.V.G.'s are removed, measured and weighed. The local activity of a product is determined by the % reduction in the surface area of the C.V.G. which it induces in comparison with the 1st of day the experiment and compared to the animals treated with solvent only.

The test system of assay [2] is Prostate in an Intact Male Rat. The assay can be described thus: Reducing effect in the weight of the prostate in an intact male rat (systemic antiandrogen activity). The assay is classed as in vivo, male rats of the Sprague Dawley strain. The settings on record: day 0 to day 4 then day 7 to day 10, intact male rats, compared to animals treated with solvent only. As for the experimental part: The experiment is carried out over two weeks, except for the weekend.
The product can be administered by oral, sub-cutaneous or percutaneous route.
The treatment is carried out from day 0 to day 4 then (after the weekend) from day 7 to day 10. The animals are sacrificed the day after the last treatment by bleeding the carotid artery, the prostates are removed and fixed in demineralized water containing 10% formol for 72 hours. They are then dissected and weighed.

Take `CC(C)OC(=O)OCCCCN1C(=O)N(c2ccc(C#N)c(C(F)(F)F)c2)C(=O)C1(C)C` [Example 1, 4-(3-(4-cyano-3-(trifluoromethyl)-phenyl)-5,5-dimethyl-2,4-dioxo-1-imidazolidinyl)butyl and 1-methylethyl carbonate]: the “RBA: Incubation for 24 hours” value on Androgen Receptor came out at 19. In assay [1], the “% CVG reduction with 3 μg/jour” value is listed as -32%. In assay [2], the “% reduction in the prostate weight with 3 mg/kg P.O.” value is given as -5%.
